According to the supplement of paper PMC10307832:

Key:
Assay in all cases: relative viability (nuclei count vs DMSO), 5 days (fraction); higher = more cells survive
[1] = compound: CN(c1ncccc1CNc1nc(Nc2ccc3c(c2)CC(=O)N3)ncc1C(F)(F)F)S(C)(=O)=O + COc1cc2c(Oc3ccc(NC(=O)C4(C(=O)Nc5ccc(F)cc5)CC4)cc3F)ccnc2cc1OCCCN1CCOCC1 [Foretinib] (partner 0.25 µM)
Procedure, shortened: (§1)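 Relative viability is defined as nuclei in treated wells over nuclei in vehicle wells. Duplicate plates were run and medians reported. Lung cancer cell lines in 1536-well plates were dosed by pin tool one day after seeding, with one drug or with a fixed anchor-drug dose plus five library-drug doses (not always all listed) in √10 steps, and nuclei were counted after 5 days.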

[2] = compound: CN(c1ncccc1CNc1nc(Nc2ccc3c(c2)CC(=O)N3)ncc1C(F)(F)F)S(C)(=O)=O + COc1cccc2cc(-c3nc([C@H]4CC[C@H](C(=O)O)CC4)n4ncnc(N)c34)[nH]c12 [OSI-027] (partner 0.5 µM)
Procedure, shortened: as §1

[3] = compound: CN(c1ncccc1CNc1nc(Nc2ccc3c(c2)CC(=O)N3)ncc1C(F)(F)F)S(C)(=O)=O + NC(=O)Nc1cc(-c2cccc(F)c2)sc1C(=O)N[C@H]1CCCNC1 [AZD7762] (partner 0.2 µM)
Procedure, shortened: as §1

[4] = compound: CN(c1ncccc1CNc1nc(Nc2ccc3c(c2)CC(=O)N3)ncc1C(F)(F)F)S(C)(=O)=O + Nc1nc2[nH]cc(CCc3ccc(C(=O)N[C@@H](CCC(=O)O)C(=O)O)cc3)c2c(=O)[nH]1 [Pemetrexed] (partner 0.2 µM)
Procedure, shortened: as §1

Row | Cell Line | relative viability ([1]; first compound 0.01 µM) | relative viability ([1]; first compound 0.03162 µM) | relative viability ([1]; first compound 0.1 µM) | relative viability ([1]; first compound 0.3162 µM) | relative viability ([1]; first compound 1 µM) | relative viability ([2]; first compound 0.01 µM) | relative viability ([2]; first compound 0.03162 µM) | relative viability ([2]; first compound 0.1 µM) | relative viability ([2]; first compound 0.3162 µM) | relative viability ([2]; first compound 1 µM) | relative viability ([3]; first compound 0.01 µM) | relative viability ([3]; first compound 0.03162 µM) | relative viability ([3]; first compound 0.1 µM) | relative viability ([3]; first compound 0.3162 µM) | relative viability ([3]; first compound 1 µM) | relative viability ([4]; first compound 0.01 µM) | relative viability ([4]; first compound 0.03162 µM) | relative viability ([4]; first compound 0.1 µM) | relative viability ([4]; first compound 0.3162 µM) | relative viability ([4]; first compound 1 µM)
1 | NCI-H441 | 0.974 | 1.14 | 0.999 | 1.17 | 0.761 | 0.76 | 0.725 | 0.596 | 0.77 | 0.518 | 1.07 | 1.11 | 1.04 | 1.18 | 1.22 | 0.222 | 0.262 | 0.244 | 0.292 | 0.262
2 | NCI-H650 | 1.02 | 0.953 | 0.935 | 0.796 | 0.853 | 0.401 | 0.555 | 0.408 | 0.455 | 0.465 | 0.909 | 1.08 | 0.822 | 0.948 | 0.995 | 0.884 | 0.935 | 0.826 | 1.04 | 0.621
3 | NCI-H1355 | 0.937 | 1.01 | 1 | 0.884 | 0.907 | 0.481 | 0.428 | 0.377 | 0.412 | 0.396 | 0.866 | 0.864 | 0.944 | 0.732 | 0.697 | 1.02 | 0.981 | 0.993 | 1.02 | 0.973
4 | NCI-H2347 | 0.612 | 0.992 | 1.1 | 0.555 | 0.616 | 0.339 | 0.416 | 0.326 | 0.449 | 0.314 | 0.818 | 0.654 | 0.782 | 0.733 | 0.685 | 0.474 | 0.434 | 0.403 | 0.44 | 0.399
5 | LCLC-97TM1 | 0.97 | 0.986 | 0.867 | 0.864 | 0.844 | 0.512 | 0.524 | 0.42 | 0.458 | 0.576 | 0.264 | 0.278 | 0.218 | 0.267 | 0.195 | 0.149 | 0.164 | 0.125 | 0.133 | 0.13
6 | EMC-BAC-2 | 0.933 | 1.18 | 0.989 | 0.944 | 0.943 | 0.377 | 0.364 | 0.339 | 0.418 | 0.371 | 1.17 | 1.08 | 1.1 | 1.11 | 1.14 | 0.427 | 0.471 | 0.433 | 0.472 | 0.45
7 | NCI-H1975 | 0.962 | 0.984 | 0.959 | 0.84 | 0.929 | 0.747 | 0.675 | 0.796 | 0.694 | 0.615 | 0.85 | 0.839 | 0.822 | 0.645 | 0.755 | 0.296 | 0.283 | 0.275 | 0.296 | 0.288
8 | BEN | 0.815 | 0.608 | 0.618 | 0.587 | 0.845 | 0.294 | 0.293 | 0.276 | 0.304 | 0.284 | 0.721 | 0.709 | 0.73 | 0.774 | 0.563 | 0.771 | 0.753 | 0.777 | 0.809 | 0.671
9 | NCI-H23 | 0.914 | 1.08 | 1.08 | 1.06 | 0.861 | 0.735 | 0.55 | 0.625 | 0.769 | 0.547 | 0.245 | 0.276 | 0.243 | 0.289 | 0.382 | 0.691 | 0.618 | 0.779 | 0.62 | 0.605
10 | CAL-12T | 1.32 | 1.2 | 1.1 | 1.1 | 0.838 | 0.725 | 0.874 | 0.58 | 0.719 | 0.514 | 0.677 | 0.603 | 0.559 | 0.647 | 0.633 | 1.24 | 1.12 | 1.25 | 1.36 | 0.982
11 | EPLC-272H | 0.569 | 0.776 | 0.727 | 0.844 | 0.69 | 0.276 | 0.294 | 0.305 | 0.344 | 0.279 | 0.273 | 0.174 | 0.211 | 0.331 | 0.291 | 0.332 | 0.349 | 0.375 | 0.345 | 0.313
12 | LCLC-103H | 0.677 | 0.751 | 0.765 | 0.766 | 0.759 | 0.497 | 0.399 | 0.422 | 0.448 | 0.424 | 0.72 | 0.711 | 0.734 | 0.745 | 0.815 | 0.476 | 0.474 | 0.488 | 0.541 | 0.463
13 | NCI-H2405 | 1.02 | 1.07 | 0.976 | 0.886 | 0.82 | 0.617 | 0.676 | 0.572 | 0.51 | 0.533 | 0.702 | 0.69 | 0.749 | 0.573 | 0.626 | 1.06 | 1.01 | 0.984 | 0.924 | 0.832
14 | HCC-15 | 0.968 | 1.06 | 0.963 | 0.951 | 0.916 | 0.748 | 0.699 | 0.675 | 0.626 | 0.527 | 1.31 | 1.39 | 1.04 | 1.23 | 1.21 | 0.22 | 0.237 | 0.218 | 0.21 | 0.215
15 | PC-3 [JPC-3] | 1.07 | 1.03 | 0.999 | 1.04 | 0.929 | 0.722 | 0.742 | 0.739 | 0.805 | 0.768 | 0.851 |  | 0.848 | 0.948 | 1.03 | 1.02 |  | 1.13 | 1.07 | 1.18
16 | NCI-H1944 | 0.771 | 0.941 | 0.87 | 0.938 | 0.79 | 0.401 | 0.445 | 0.38 | 0.453 | 0.439 | 0.723 | 0.571 | 0.602 | 0.672 | 0.658 | 0.642 | 0.612 | 0.646 | 0.592 | 0.613
